According to ChEMBL document CHEMBL1772986, “Scaffold-hopping strategy: synthesis and biological evaluation of 5,6-fused bicyclic heteroaromatics to identify orally bioavailable anticancer agents” (J Med Chem, 2011):
≈ marks a conversion by molar mass, not a printed value. Calls of active or inactive are those of the source. The rule behind the calls is not given here.

Columns and labels:
[1] = test system: KB; assay: Cytotoxicity against human KB cells after 72 hrs by methylene blue dye assay; format: functional, cell-based
[2] = test system: MKN-45; assay: Cytotoxicity against human MKN45 cells after 72 hrs by methylene blue dye assay; format: functional, cell-based; details: MKN-45, 72 h
[3] = Solubility of the compound in phosphate buffer at 2 mg at pH 7.4 after 24 hrs; format: physicochemical
[4] = Aqueous solubility in distilled water at 2 mg after 24 hrs; format: physicochemical
[5] = Metabolic stability in human liver microsomes assessed as compound remaining at 1 uM after 30 mins; format: ADME, Microsome; details: read-out: Stability
[6] = Inhibition of tubulin polymerization measured every 30 seconds for 30 mins
[7] = Cmax in Sprague-Dawley rat at 20 mg/kg, po; format: ADME, organism-based; set-up: dose 20 mg/kg, route oral; details: in vivo
[8] = Half life in Sprague-Dawley rat plasma at 20 mg/kg, po; format: ADME, organism-based; set-up: dose 20 mg/kg, route oral
[9] = test system: Rattus norvegicus; assay: Volume of distribution at steady state in Sprague-Dawley rat at 5 mg/kg, iv; format: ADME, organism-based; set-up: dose 5 mg/kg, route intravenous; details: in vivo
[10] = Oral bioavailability in Sprague-Dawley rat at 20 mg/kg; format: ADME, organism-based; details: in vivo
[11] = test system: Rattus norvegicus; assay: Half life in Sprague-Dawley rat plasma at 5 mg/kg, iv; format: ADME, organism-based; set-up: dose 5 mg/kg, route intravenous; details: in vivo
[12] = AUC in Sprague-Dawley rat at 20 mg/kg, po; format: ADME, organism-based; set-up: dose 20 mg/kg, route oral; details: plasma
[13] = test system: Rattus norvegicus; assay: AUC in Sprague-Dawley rat at 5 mg/kg, iv; format: ADME, organism-based, Plasma; set-up: dose 5 mg/kg, route intravenous; details: in vivo
[14] = Tmax in Sprague-Dawley rat at 20 mg/kg, po; format: ADME, organism-based; set-up: dose 20 mg/kg, route oral; details: in vivo

Row | Structure (SMILES) | IC50 [1] | IC50 [2] | solubility at 24 h [3] | solubility at 24 h [4] | remaining at 0.5 h, 1 µM [5] | other results
1 | COc1ncc2c(C(=O)c3cc(OC)c(OC)c(OC)c3)c[nH]c2n1 | 284 nM | 80 nM |  |  |  | 
2 | COc1ccc2c(C(=O)c3cc(OC)c(OC)c(OC)c3)c[nH]c2n1 | 20 nM | 16 nM | < 1 µg/mL | < 2 µg/mL | 88.3% | 
3 | COc1ccn2c(C(=O)c3cc(OC)c(OC)c(OC)c3)cnc2c1 | 770 nM | 730 nM |  |  |  | 
4 | COc1ccc2c(C(=O)c3cc(OC)c(OC)c(OC)c3)cnn2n1 | > 1000 nM | > 1000 nM |  |  | 99.6% | 
5 | CCOc1ccc2c(C(=O)c3cc(OC)c(OC)c(OC)c3)c[nH]c2n1 | 12 nM | 14 nM | < 1 µg/mL | < 2 µg/mL | 96.4% | inhibition [6]: Active
6 | COc1ccc2c(C(=O)c3cc(OC)c(OC)c(OC)c3)n[nH]c2c1 | 70 nM | 95 nM |  |  |  | 
7 | COc1cc(C(=O)c2c[nH]c3nc(C)ccc23)cc(OC)c1OC [listing 1 of 2 here] |  |  |  |  |  | inhibition [6]: Active
8 | COc1ccc2c(C(=O)c3cc(OC)c(OC)c(OC)c3)c[nH]c2c1 | 6 nM | 5 nM | 0.61 µg/mL (≈ 1.79 µM) | 0.9 µg/mL (≈ 2.64 µM) | 54.1% | Cmax [7]: 179 ng/mL; half-life [8]: 2.8 h; Vdss [9]: 1.6 L/kg; bioavailability [10]: 9.7%; t1/2 [11]: 0.9 h; AUC [12]: 1310 ng·h/mL; AUC [13]: 2712 ng·h/mL; Tmax [14]: 4 h
9 | COc1cc(C(=O)c2c[nH]c3nc(C)ccc23)cc(OC)c1OC [listing 2 of 2 here] |  |  | 8.3 µg/mL (≈ 25.4 µM) | 14.3 µg/mL (≈ 43.8 µM) |  | Cmax [7]: 3750 ng/mL; half-life [8]: 1.3 h; Vdss [9]: 0.7 L/kg; bioavailability [10]: 35%; t1/2 [11]: 0.4 h; AUC [12]: 4640 ng·h/mL; AUC [13]: 2653 ng·h/mL; Tmax [14]: 0.5 h
10 | COc1cc(C(=O)c2c[nH]c3nc(C)ccc23)cc(OC)c1OC.Cl |  |  | 79.6 µg/mL | 91.3 µg/mL |  | 
11 | COc1ccc2c(C(=O)c3cc(OC)c(OC)c(OC)c3)c(C)cn2c1 | 31 nM | 26 nM |  |  | 35.4% | inhibition [6]: Active
12 | COc1ccc2c(C(=O)c3cc(OC)c(OC)c(OC)c3)ccn2c1 | 284 nM | 80 nM |  |  |  | 
13 | COc1ccn2c(C(=O)c3cc(OC)c(OC)c(OC)c3)c(C)cc2c1 | > 1000 nM | 354 nM |  |  |  | 
